Patent US10654829B2, “Crystalline forms and compositions of CFTR modulators” (Vertex Pharmaceuticals Incorporated, priority 2017, dated 2020)
“Also recorded” adds a separate entry of the source. Like-named read-outs stand apart in the source and are kept apart here.

Key:
[1] = pKa determination; format: physicochemical
[2] = target: T1, F508del-CFTR (Homo sapiens, UniProt P13569, DEL508-508); experiment: Membrane potential optical (FLIPR) assay for F508del-CFTR modulators; format: cell-based; set-up: expressed in transfected cells
Excerpt: The assay utilizes fluorescent voltage sensing dyes to measure changes in membrane potential using a fluorescent plate reader (e.g., FLIPR III, Molecular Devices, Inc.) as a readout for increase in functional F508del in NIH 3T3 cells. The driving force for the response is the creation of a chloride ion gradient in conjunction with channel activation and concurrent with compound treatment by a single liquid addition step after the cells have previously been loaded with a voltage sensing dye.
To identify modulators of F508del, a fluorescence based HTS assay format was developed. This HTS assay utilizes fluorescent voltage sensing dyes to measure changes in membrane potential on the FLIPR III as a measurement for increase in gating (conductance) of F508del NIH 3T3 cells. The driving force for the response is the creation of a chloride ion gradient in conjunction with channel activation and concurrent with compound treatment by a single liquid addition step after the cells have previously been loaded with a voltage sensing dye.
(in mM) NaCl 160, KCl 4.5, CaCl2) 2, MgCl2 1, HEPES 10, pH 7.4 with NaOH, Glucose 10.
Chloride salts in Bath Solution #1 (above) are substituted with gluconate salts.
NIH3T3 mouse fibroblasts stably expressing F508del are used for optical measurements of membrane potential. The cells are maintained at 37° C. in 5% CO2 and 90% humidity in Dulbecco's modified Eagle's medium supplemented with 2 mM glutamine, 10% fetal bovine serum, 1×NEAA, β-ME, 1× pen/strep, and 25 mM HEPES in 175 cm^2 culture flasks. For all optical assays, the cells were seeded at 12,000 cells/well in 384-well matrigel-coated plates and cultured for 18-24 hrs at 37° C. for the potentiator assay. For the correction assays, the cells are cultured at 37° C. with and without compounds for 18-24 hours.

[3] = target: T1, F508del-CFTR; experiment: Ussing chamber assay, chloride transport in HBE cells; format: cell-based; set-up: CF-HBE were isolated from patients homozygous for F508del; endogenous in cells; host or cells: primary CF human bronchial epithelial cells (F508del/F508del-HBE)
Procedure: Using chamber experiments were performed on polarized airway epithelial cells expressing F508del to further characterize the F508del modulators identified in the optical assays. Non-CF and CF airway epithelia were isolated from bronchial tissue, cultured as previously described (Galietta, L. J. V., Lantero, S., Gazzolo, A., Sacco, O., Romano, L., Rossi, G. A., & Zegarra-Moran, O. (1998) In Vitro Cell. Dev. Biol. 34, 478-481), and plated onto Costar® Snapwell™ filters that were precoated with NIH3T3-conditioned media. After four days the apical media was removed and the cells were grown at an air liquid interface for >14 days prior to use. […] CF-HBE were isolated from patients homozygous for F508del or compound heterozygous for F508del with a different disease causing mutation on the other allele.
HBE grown on Costar® Snapwell™ cell culture inserts were mounted in an Using chamber (Physiologic Instruments, Inc., San Diego, Calif.), and the transepithelial resistance and short-circuit current in the presence of a basolateral to apical Cl^− gradient (ISC) were measured using a voltage-clamp system (Department of Bioengineering, University of Iowa, IA). Briefly, HBE were examined under voltage-clamp recording conditions (Vhold=0 mV) at 37° C. The basolateral solution contained (in mM) 145 NaCl, 0.83 K2HPO4, 3.3 KH2PO4, 1.2 MgCl2, 1.2 CaCl2, 10 Glucose, 10 HEPES (pH adjusted to 7.35 with NaOH) and the apical solution contained (in mM) 145 NaGluconate, 1.2 MgCl2, 1.2 CaCl2), 10 glucose, 10 HEPES (pH adjusted to 7.35 with NaOH).
Typical protocol utilized a basolateral to apical membrane Cl^− concentration gradient. To set up this gradient, normal ringers was used on the basolateral membrane, whereas apical NaCl was replaced by equimolar sodium gluconate (titrated to pH 7.4 with NaOH) to give a large Cl^− concentration gradient across the epithelium. Modulators were added either to the basolateral side […] to assay or to the apical side during the assay. Forskolin (10 μM) was added to the apical side during the assay to stimulate CFTR-mediated Cl^− transport.

[4] = target: T1, F508del-CFTR; experiment: F508del-CFTR processing and trafficking in vitro (170 to 180 kDa band); format: cell-based; set-up: CF-HBE were isolated from patients homozygous for F508del; endogenous in cells; host or cells: primary CF human bronchial epithelial cells (F508del/F508del-HBE)
Excerpt: Processing and trafficking of F508del-CFTR was directly monitored by the appearance of a 170 to 180 kDa band.

T1 sequence (P13569 with tags, fused parts or gaps DEL508-508): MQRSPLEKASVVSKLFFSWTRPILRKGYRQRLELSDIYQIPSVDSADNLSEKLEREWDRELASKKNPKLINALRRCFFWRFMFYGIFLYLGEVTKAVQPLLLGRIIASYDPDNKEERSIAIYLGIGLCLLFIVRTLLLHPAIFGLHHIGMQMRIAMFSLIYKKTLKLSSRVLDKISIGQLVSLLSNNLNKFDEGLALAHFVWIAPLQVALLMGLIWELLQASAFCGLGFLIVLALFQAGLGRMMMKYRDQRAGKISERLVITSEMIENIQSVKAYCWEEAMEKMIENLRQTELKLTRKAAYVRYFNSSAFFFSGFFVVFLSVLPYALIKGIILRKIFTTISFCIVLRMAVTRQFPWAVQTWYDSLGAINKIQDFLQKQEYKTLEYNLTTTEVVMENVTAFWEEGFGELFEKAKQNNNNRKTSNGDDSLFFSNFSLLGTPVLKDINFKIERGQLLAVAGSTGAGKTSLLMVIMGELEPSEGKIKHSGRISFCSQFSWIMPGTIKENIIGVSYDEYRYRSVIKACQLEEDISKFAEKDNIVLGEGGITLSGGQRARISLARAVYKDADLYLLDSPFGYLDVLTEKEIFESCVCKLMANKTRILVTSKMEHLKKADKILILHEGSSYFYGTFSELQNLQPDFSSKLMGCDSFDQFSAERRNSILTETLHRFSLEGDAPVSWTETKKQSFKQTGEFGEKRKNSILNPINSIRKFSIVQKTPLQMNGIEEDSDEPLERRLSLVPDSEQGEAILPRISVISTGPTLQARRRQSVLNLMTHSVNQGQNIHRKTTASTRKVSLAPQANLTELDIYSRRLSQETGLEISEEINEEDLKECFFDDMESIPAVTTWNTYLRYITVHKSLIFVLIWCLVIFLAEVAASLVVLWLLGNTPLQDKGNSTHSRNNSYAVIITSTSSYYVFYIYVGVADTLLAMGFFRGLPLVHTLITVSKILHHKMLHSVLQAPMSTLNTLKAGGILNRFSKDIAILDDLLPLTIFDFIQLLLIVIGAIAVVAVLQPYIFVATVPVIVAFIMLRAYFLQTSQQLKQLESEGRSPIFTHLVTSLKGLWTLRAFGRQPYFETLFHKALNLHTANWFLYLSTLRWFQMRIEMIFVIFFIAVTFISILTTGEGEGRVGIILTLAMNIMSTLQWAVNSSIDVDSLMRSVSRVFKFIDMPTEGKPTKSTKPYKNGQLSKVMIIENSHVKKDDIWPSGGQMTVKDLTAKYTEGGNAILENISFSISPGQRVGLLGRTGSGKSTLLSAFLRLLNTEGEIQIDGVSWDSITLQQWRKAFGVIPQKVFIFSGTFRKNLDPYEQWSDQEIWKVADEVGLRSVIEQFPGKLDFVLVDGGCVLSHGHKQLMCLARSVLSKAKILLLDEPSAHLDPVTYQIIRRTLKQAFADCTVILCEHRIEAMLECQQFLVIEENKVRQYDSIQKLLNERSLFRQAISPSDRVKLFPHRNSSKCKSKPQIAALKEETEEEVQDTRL

pKa [1] | EC50 ([2]; CFTR Activity, Table 120, read-out: CFTRdF508 EC50) [µM] | EC50 ([2]; F508del NIH 3T3 cells, membrane potential HTS assay, read-out: EC50) [µM] | Emax ([2]; NIH3T3, F508del NIH 3T3 cells, relative to Compound II, read-out: % Efficacy relative to Compound II) [%] | chloride transport ([3]; F508del/F508del-HBE cells) | effect on chloride transport together with Compound II ([3]; F508del/F508del-HBE cells) | increase in steady-state levels, fold of untreated levels ([4]; F508del/F508del-HBE cells, 16 to 24 hours, 1 μM Compound I alone) [fold] | potentiation of F508del-CFTR delivered to the cell surface by Compound I alone or in combination with Compound II ([3]; HBE cells) | SMILES | processing and trafficking of F508del-CFTR ([4]; in vitro)
4.95 ± 0.06 | < 0.1 | < 3 | ≥ 100 | enhanced chloride transport | additive to the effect of Compound II | 6.5 |  | C[C@@H]1CN(c2nc(-n3ccc(OCCC4(C(F)(F)F)CC4)n3)ccc2C(=O)NS(=O)(=O)c2ccccc2)C(C)(C)C1 [Compound I, N-(benzenesulfonyl)-6-[3-[2-[1-(trifluoromethyl)cyclopropyl]ethoxy]pyrazol-1-yl]-2-[(4S)-2,2,4-trimethylpyrrolidin-1-yl]pyridine-3-carboxamide] | improved the processing and trafficking of F508del-CFTR; also recorded: facilitates the processing and trafficking of F508del-CFTR
 |  |  |  |  |  |  | potentiated | CC(C)(C)c1cc(C(C)(C)C)c(NC(=O)c2c[nH]c3ccccc3c2=O)cc1O [Compound III, N-(5-hydroxy-2,4-di-tert-butyl-phenyl)-4-oxo-1H-quinoline-3-carboxamide, reference compound] | 
